From patent US20020137929A1, “1 - (3-heterocyclylphenyl) isothiourea, -isourea, -guanidine and -amidine herbicidal agents” (Intellectual Property Department, BASF Aktiengesellschaft, priority 1998, published 2002)

Columns and labels:
[1] = test system: IPOHE (Morningglory, Ivyleaf); experiment: Preemergence herbicidal evaluation; assay type: in vivo, Ipomoea hederacea; details: rated 4-5 weeks after treatment
Method in brief: (§1)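 Greenhouse preemergence test: seed-soil mix sown on ~1 inch soil; aqueous acetone spray at equivalent of ~0.0156–0.500 kg/ha; greenhouse-held and watered; scored 0–9 visually at 4–5 weeks.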

[2] = test system: TRZAWR (Wheat, Winter, cv Riband); experiment: Preemergence herbicidal evaluation; assay type: in vivo, Triticum aestivum; details: rated 4-5 weeks after treatment
Method in brief: as §1

[3] = test system: IPOHE (Morningglory, Ivyleaf); experiment: Postemergence herbicidal evaluation; assay type: in vivo, Ipomoea hederacea; details: postemergence
Method in brief: (§2)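 Two-week-old seedlings sprayed with compound in 50/50 acetone/water plus 0.5% TWEEN 20, at about 0.0156 to 0.500 kg/ha, nozzle at 40 psi. Kept in greenhouse; rated visually 4-5 weeks after treatment on a 0-9 scale versus control, repeat tests averaged.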

CASOB (Sicklepod) [4] = experiment: Preemergence herbicidal evaluation; assay type: in vivo, Cassia obtusifolia; details: rated 4-5 weeks after treatment
Method in brief: as §1

ABUTH (Velvetleaf) = experiment: Preemergence herbicidal evaluation; assay type: in vivo, Abutilon theophrasti; details: rated 4-5 weeks after treatment
Method in brief: as §1

[5] = test system: SAGPY (Arrowhead (Pygmaea)); experiment: Preemergence weed control under flooded paddy conditions; assay type: in vivo, Sagittaria pygmaea; details: rated 3-4 weeks after treatment
Method in brief: (§3)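 Silt loam, seeds in top 0.5 cm; flood held 1.5-3 cm; test cpd as acetone/water 50/50 into flood water, ~0.0313-0.500 kg/ha a.i.; greenhouse 3-4 wk; visual 0-9 score vs control.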

MOOVA (Monochoria) = experiment: as above; assay type: in vivo, Monochoria vaginalis; details: rated 3-4 weeks after treatment
Method in brief: as §3

ZEAMX (Corn, Field) = experiment: Preemergence herbicidal evaluation; assay type: in vivo, Zea mays; details: rated 4-5 weeks after treatment
Method in brief: as §1

AMBEL (Ragweed, Common) = experiment: Postemergence herbicidal evaluation; assay type: in vivo, Ambrosia artemisifolia; details: postemergence
Method in brief: as §2

CASOB (Sicklepod) [6] = experiment: Postemergence herbicidal evaluation; assay type: in vivo, Cassia obtusifolia; details: postemergence
Method in brief: as §2

[7] = test system: GLXMAW (Soybean, Williams); experiment: Preemergence herbicidal evaluation; assay type: in vivo, Glycine max, (L.) Merr. cv Williams; details: rated 4-5 weeks after treatment
Method in brief: as §1

ECHCG (Barnyardgrass) = experiment: Preemergence herbicidal evaluation; assay type: in vivo, Echinochloa crus-galli; details: rated 4-5 weeks after treatment
Method in brief: as §1

GALAP (Galium) = experiment: Postemergence herbicidal evaluation; assay type: in vivo, Galium aparine; details: postemergence
Method in brief: as §2

[8] = rate 0.0156 kg/ha, rating scale 0-9
[9] = rate 0.0313 kg/ha, rating scale 0-9
[10] = rate 0.0625 kg/ha, rating scale 0-9
[11] = rate 0.1250 kg/ha, rating scale 0-9
[12] = rate 0.2500 kg/ha, rating scale 0-9

Cn1c(C(F)(F)F)cc(=O)n(-c2cc(N=C3SCC(=O)N3Cc3ccc(Cl)cc3)c(Cl)cc2F)c1=O [Compound 145, 3-{4-Chloro-5-{[3-(p-chlorobenzyl)-4-oxo-2-thiazolidinylidene]amino}-2-fluorophenyl}-1-methyl-6-(trifluoromethyl)-2,4(1H,3H)-pyrimidinedione]
Preemergence herbicidal rating IPOHE [1, 8]: 0.0
Preemergence herbicidal rating IPOHE [1, 9]: 0.0
Preemergence herbicidal rating IPOHE [1, 10]: 0.0
Preemergence herbicidal rating IPOHE [1, 11]: 7.0
Preemergence herbicidal rating IPOHE [1, 12]: 5.0
Preemergence herbicidal rating TRZAWR [2, 8]: 0.0
Preemergence herbicidal rating TRZAWR [2, 9]: 1.0
Preemergence herbicidal rating TRZAWR [2, 10]: 1.0
Preemergence herbicidal rating TRZAWR [2, 11]: 0.0
Preemergence herbicidal rating TRZAWR [2, 12]: 1.0
herbicidal rating IPOHE ([3]; rate 0.0156 kg/ha): 9.0
herbicidal rating IPOHE ([3]; rate 0.0313 kg/ha): 9.0
herbicidal rating IPOHE ([3]; rate 0.0625 kg/ha): 9.0
Preemergence herbicidal rating CASOB (CASOB (Sicklepod) [4]; [8]): 1.0
Preemergence herbicidal rating CASOB (CASOB (Sicklepod) [4]; [9]): 1.0
Preemergence herbicidal rating CASOB (CASOB (Sicklepod) [4]; [10]): 6.0
Preemergence herbicidal rating CASOB (CASOB (Sicklepod) [4]; [11]): 1.0
Preemergence herbicidal rating CASOB (CASOB (Sicklepod) [4]; [12]): 7.0
Preemergence herbicidal rating ABUTH (ABUTH (Velvetleaf); [8]): 0.0
Preemergence herbicidal rating ABUTH (ABUTH (Velvetleaf); [9]): 2.0
Preemergence herbicidal rating ABUTH (ABUTH (Velvetleaf); [10]): 3.0
Preemergence herbicidal rating ABUTH (ABUTH (Velvetleaf); [11]): 9.0
Preemergence herbicidal rating ABUTH (ABUTH (Velvetleaf); [12]): 6.0
herbicidal effect rating, SAGPY ([5]; 0.0313 kg/ha): 0.0
herbicidal effect rating, SAGPY ([5]; 0.0625 kg/ha): 2.0
herbicidal effect rating, SAGPY ([5]; 0.1250 kg/ha): 5.0
herbicidal effect rating, SAGPY ([5]; 0.2500 kg/ha): 5.0
herbicidal effect rating, MOOVA (MOOVA (Monochoria); 0.0313 kg/ha): 4.0
herbicidal effect rating, MOOVA (MOOVA (Monochoria); 0.0625 kg/ha): 6.0
herbicidal effect rating, MOOVA (MOOVA (Monochoria); 0.1250 kg/ha): 9.0
herbicidal effect rating, MOOVA (MOOVA (Monochoria); 0.2500 kg/ha): 9.0
Preemergence herbicidal rating ZEAMX (ZEAMX (Corn, Field); [8]): 0.0
Preemergence herbicidal rating ZEAMX (ZEAMX (Corn, Field); [9]): 0.0
Preemergence herbicidal rating ZEAMX (ZEAMX (Corn, Field); [10]): 0.0
Preemergence herbicidal rating ZEAMX (ZEAMX (Corn, Field); [11]): 1.0
Preemergence herbicidal rating ZEAMX (ZEAMX (Corn, Field); [12]): 2.0
herbicidal rating AMBEL (AMBEL (Ragweed, Common); rate 0.0156 kg/ha): 9.0
herbicidal rating AMBEL (AMBEL (Ragweed, Common); rate 0.0313 kg/ha): 9.0
herbicidal rating AMBEL (AMBEL (Ragweed, Common); rate 0.0625 kg/ha): 9.0
herbicidal rating CASOB (CASOB (Sicklepod) [6]; rate 0.0156 kg/ha): 1.0
herbicidal rating CASOB (CASOB (Sicklepod) [6]; rate 0.0313 kg/ha): 2.0
herbicidal rating CASOB (CASOB (Sicklepod) [6]; rate 0.0625 kg/ha): 5.0
Preemergence herbicidal rating GLXMAW [7, 8]: 0.0
Preemergence herbicidal rating GLXMAW [7, 9]: 0.0
Preemergence herbicidal rating GLXMAW [7, 10]: 0.0
Preemergence herbicidal rating GLXMAW [7, 11]: 1.0
Preemergence herbicidal rating GLXMAW [7, 12]: 2.0
Preemergence herbicidal rating ECHCG (ECHCG (Barnyardgrass); [8]): 0.0
Preemergence herbicidal rating ECHCG (ECHCG (Barnyardgrass); [9]): 0.0
Preemergence herbicidal rating ECHCG (ECHCG (Barnyardgrass); [10]): 1.0
Preemergence herbicidal rating ECHCG (ECHCG (Barnyardgrass); [11]): 1.0
Preemergence herbicidal rating ECHCG (ECHCG (Barnyardgrass); [12]): 1.0
herbicidal rating GALAP (GALAP (Galium); rate 0.0156 kg/ha): 1.0
herbicidal rating GALAP (GALAP (Galium); rate 0.0313 kg/ha): 4.0
herbicidal rating GALAP (GALAP (Galium); rate 0.0625 kg/ha): 7.0

C=CCN1C(=O)C(CC(=O)NO)SC1=Nc1cc(-n2c(=O)cc(C(F)(F)F)n(C)c2=O)c(F)cc1Cl (centres unmarked) [Compound 161, 3-Allyl-2-{{2-chloro-5-[3,6-dihydro-3-methyl-2,6-dioxo-4-(trifluoromethyl)-1(2H)-pyrimidinyl]-4-fluorophenyl}imino}-4-oxo-5-thiazolidineacetohydroxamic acid]
Preemergence herbicidal rating IPOHE ([1]; 0.0313 kg/ha): 2.0
Preemergence herbicidal rating IPOHE ([1]; 0.0625 kg/ha): 7.0
Preemergence herbicidal rating IPOHE ([1]; 0.1250 kg/ha): 9.0
Preemergence herbicidal rating IPOHE ([1]; 0.2500 kg/ha): 9.0
Preemergence herbicidal rating IPOHE ([1]; 0.5000 kg/ha): 9.0
Preemergence herbicidal rating TRZAWR ([2]; 0.0156 kg/ha): 0.0
Preemergence herbicidal rating TRZAWR ([2]; 0.0313 kg/ha): 0.0
Preemergence herbicidal rating TRZAWR ([2]; 0.0625 kg/ha): 1.0
Preemergence herbicidal rating TRZAWR ([2]; 0.1250 kg/ha): 4.0
Preemergence herbicidal rating TRZAWR ([2]; 0.2500 kg/ha): 7.0
Preemergence herbicidal rating TRZAWR ([2]; 0.5000 kg/ha): 9.0
herbicidal rating IPOHE ([3]; rate 0.0156 kg/ha): 1.0
herbicidal rating IPOHE ([3]; rate 0.0313 kg/ha): 3.0
herbicidal rating IPOHE ([3]; rate 0.0625 kg/ha): 9.0
herbicidal rating IPOHE ([3]; rate 0.1250 kg/ha): 9.0
Preemergence herbicidal rating CASOB (CASOB (Sicklepod) [4]; 0.0156 kg/ha): 0.0
Preemergence herbicidal rating CASOB (CASOB (Sicklepod) [4]; 0.0313 kg/ha): 0.0
Preemergence herbicidal rating CASOB (CASOB (Sicklepod) [4]; 0.0625 kg/ha): 1.0
Preemergence herbicidal rating CASOB (CASOB (Sicklepod) [4]; 0.1250 kg/ha): 9.0
Preemergence herbicidal rating CASOB (CASOB (Sicklepod) [4]; 0.2500 kg/ha): 9.0
Preemergence herbicidal rating CASOB (CASOB (Sicklepod) [4]; 0.5000 kg/ha): 9.0
Preemergence herbicidal rating ABUTH (ABUTH (Velvetleaf); 0.0156 kg/ha): 0.0
Preemergence herbicidal rating ABUTH (ABUTH (Velvetleaf); 0.0313 kg/ha): 1.0
Preemergence herbicidal rating ABUTH (ABUTH (Velvetleaf); 0.0625 kg/ha): 2.0
Preemergence herbicidal rating ABUTH (ABUTH (Velvetleaf); 0.1250 kg/ha): 9.0
Preemergence herbicidal rating ABUTH (ABUTH (Velvetleaf); 0.2500 kg/ha): 9.0
Preemergence herbicidal rating ABUTH (ABUTH (Velvetleaf); 0.5000 kg/ha): 9.0
herbicidal effect rating, SAGPY ([5]; 0.0313 kg/ha): 2.0
herbicidal effect rating, SAGPY ([5]; 0.1250 kg/ha): 6.0
herbicidal effect rating, SAGPY ([5]; 0.2500 kg/ha): 9.0
herbicidal effect rating, MOOVA (MOOVA (Monochoria); 0.0313 kg/ha): 7.0
herbicidal effect rating, MOOVA (MOOVA (Monochoria); 0.0625 kg/ha): 7.0
herbicidal effect rating, MOOVA (MOOVA (Monochoria); 0.1250 kg/ha): 7.0
herbicidal effect rating, MOOVA (MOOVA (Monochoria); 0.2500 kg/ha): 9.0
Preemergence herbicidal rating ZEAMX (ZEAMX (Corn, Field); 0.0156 kg/ha): 0.0
Preemergence herbicidal rating ZEAMX (ZEAMX (Corn, Field); 0.0313 kg/ha): 0.0
Preemergence herbicidal rating ZEAMX (ZEAMX (Corn, Field); 0.0625 kg/ha): 1.0
Preemergence herbicidal rating ZEAMX (ZEAMX (Corn, Field); 0.1250 kg/ha): 5.0
Preemergence herbicidal rating ZEAMX (ZEAMX (Corn, Field); 0.2500 kg/ha): 6.0
Preemergence herbicidal rating ZEAMX (ZEAMX (Corn, Field); 0.5000 kg/ha): 9.0
herbicidal rating AMBEL (AMBEL (Ragweed, Common); rate 0.0156 kg/ha): 1.0
herbicidal rating AMBEL (AMBEL (Ragweed, Common); rate 0.0313 kg/ha): 4.0
herbicidal rating AMBEL (AMBEL (Ragweed, Common); rate 0.0625 kg/ha): 9.0
herbicidal rating AMBEL (AMBEL (Ragweed, Common); rate 0.1250 kg/ha): 9.0
herbicidal rating CASOB (CASOB (Sicklepod) [6]; rate 0.0156 kg/ha): 0.0
herbicidal rating CASOB (CASOB (Sicklepod) [6]; rate 0.0313 kg/ha): 1.0
herbicidal rating CASOB (CASOB (Sicklepod) [6]; rate 0.0625 kg/ha): 1.0
herbicidal rating CASOB (CASOB (Sicklepod) [6]; rate 0.1250 kg/ha): 3.0
Preemergence herbicidal rating GLXMAW ([7]; 0.0156 kg/ha): 0.0
Preemergence herbicidal rating GLXMAW ([7]; 0.0313 kg/ha): 1.0
Preemergence herbicidal rating GLXMAW ([7]; 0.0625 kg/ha): 1.0
Preemergence herbicidal rating GLXMAW ([7]; 0.1250 kg/ha): 7.0
Preemergence herbicidal rating GLXMAW ([7]; 0.2500 kg/ha): 9.0
Preemergence herbicidal rating GLXMAW ([7]; 0.5000 kg/ha): 9.0
Preemergence herbicidal rating ECHCG (ECHCG (Barnyardgrass); 0.0156 kg/ha): 0.0
Preemergence herbicidal rating ECHCG (ECHCG (Barnyardgrass); 0.0313 kg/ha): 0.0
Preemergence herbicidal rating ECHCG (ECHCG (Barnyardgrass); 0.0625 kg/ha): 0.0
Preemergence herbicidal rating ECHCG (ECHCG (Barnyardgrass); 0.1250 kg/ha): 4.0
Preemergence herbicidal rating ECHCG (ECHCG (Barnyardgrass); 0.2500 kg/ha): 7.0
Preemergence herbicidal rating ECHCG (ECHCG (Barnyardgrass); 0.5000 kg/ha): 9.0
herbicidal rating GALAP (GALAP (Galium); rate 0.0156 kg/ha): 0.0
herbicidal rating GALAP (GALAP (Galium); rate 0.0313 kg/ha): 1.0
herbicidal rating GALAP (GALAP (Galium); rate 0.0625 kg/ha): 2.0
herbicidal rating GALAP (GALAP (Galium); rate 0.1250 kg/ha): 4.0
